According to ChEMBL document CHEMBL2413072, “Synthesis and in vitro anticancer studies of novel C-2 arylidene congeners of lantadenes” (2013):

What was measured:
Type in all cases: functional
SF-268 = test: Growth inhibition of human SF268 cells by sulforhodamine B assay
HCT-116 = test: Growth inhibition of human HCT116 cells by sulforhodamine B assay
[1] = Growth inhibition of human HCC2998 cells by sulforhodamine B assay
HOP-62 [2] = test: Growth inhibition of human HOP62 cells by sulforhodamine B assay
IGROV-1 [3] = test: Growth inhibition of human IGROV1 cells assessed as cell growth at 10^-8 M by sulforhodamine B assay; conditions: read-out: Activity
SK-MEL-5 [4] = test: Growth inhibition of human SK-MEL-5 cells assessed as cell growth at 10^-8 M by sulforhodamine B assay; conditions: read-out: Activity
NCI-H522 = test: Growth inhibition of human NCI-H522 cells assessed as cell growth at 10^-8 M by sulforhodamine B assay; conditions: read-out: Activity
NCI-H23 = test: Growth inhibition of human NCI-H23 cells assessed as cell growth at 10^-8 M by sulforhodamine B assay; conditions: read-out: Activity
HL-60(TB) = test: Growth inhibition of human HL-60(TB) cells assessed as cell growth at 10^-8 M by sulforhodamine B assay; conditions: read-out: Activity
UO-31 [5] = test: Growth inhibition of human UO31 cells by sulforhodamine B assay
OVCAR-3 = test: Growth inhibition of human OVCAR3 cells by sulforhodamine B assay
UACC-62 [6] = test: Growth inhibition of human UACC62 cells by sulforhodamine B assay
IGROV-1 [7] = test: Growth inhibition of human IGROV1 cells by sulforhodamine B assay
LOX IMVI = test: Growth inhibition of human LOXIMVI cells by sulforhodamine B assay
SF-539 = test: Growth inhibition of human SF539 cells by sulforhodamine B assay
SF-295 = test: Growth inhibition of human SF295 cells by sulforhodamine B assay
MDA-MB-231 = test: Growth inhibition of human MDA-MB-231 cells assessed as cell growth at 10^-4 M by sulforhodamine B assay; conditions: read-out: Activity
PC-3 = test: Growth inhibition of human PC3 cells assessed as cell growth at 10^-4 M by sulforhodamine B assay; conditions: read-out: Activity
RXF 393 = test: Growth inhibition of human RXF393 cells assessed as cell growth at 10^-4 M by sulforhodamine B assay; conditions: read-out: Activity
ACHN [8] = test: Growth inhibition of human ACHN cells assessed as cell growth at 10^-4 M by sulforhodamine B assay; conditions: read-out: Activity
IGROV-1 [9] = test: Growth inhibition of human IGROV1 cells assessed as cell growth at 10^-4 M by sulforhodamine B assay; conditions: read-out: Activity
SK-MEL-2 = test: Growth inhibition of human SK-MEL-2 cells assessed as cell growth at 10^-4 M by sulforhodamine B assay; conditions: read-out: Activity
SNB-19 = test: Growth inhibition of human SNB19 cells assessed as cell growth at 10^-4 M by sulforhodamine B assay; conditions: read-out: Activity
CAKI-1 [10] = test: Growth inhibition of human CAKI-1 cells assessed as cell growth at 10^-6 M by sulforhodamine B assay; conditions: read-out: Activity
UACC-62 [11] = test: Growth inhibition of human UACC62 cells assessed as cell growth at 10^-6 M by sulforhodamine B assay; conditions: read-out: Activity
SK-MEL-5 [12] = test: Growth inhibition of human SK-MEL-5 cells assessed as cell growth at 10^-6 M by sulforhodamine B assay; conditions: read-out: Activity
M14 = test: Growth inhibition of human M14 cells assessed as cell growth at 10^-6 M by sulforhodamine B assay; conditions: read-out: Activity
SNB-75 = test: Growth inhibition of human SNB75 cells assessed as cell growth at 10^-6 M by sulforhodamine B assay; conditions: read-out: Activity
COLO 205 = test: Growth inhibition of human COLO205 cells assessed as cell growth at 10^-6 M by sulforhodamine B assay; conditions: read-out: Activity
NCI-H226 = test: Growth inhibition of human NCI-H226 cells assessed as cell growth at 10^-6 M by sulforhodamine B assay; conditions: read-out: Activity
HOP-62 [13] = test: Growth inhibition of human HOP62 cells assessed as cell growth at 10^-6 M by sulforhodamine B assay; conditions: read-out: Activity
[14] = Growth inhibition of human Hs 578T cells assessed as cell growth at 10^-7 M by sulforhodamine B assay; conditions: read-out: Activity
SN12C = test: Growth inhibition of human SN12C cells assessed as cell growth at 10^-7 M by sulforhodamine B assay; conditions: read-out: Activity
CAKI-1 [15] = test: Growth inhibition of human CAKI-1 cells assessed as cell growth at 10^-7 M by sulforhodamine B assay; conditions: read-out: Activity
A549 = test: Growth inhibition of human A549/ATCC cells assessed as cell growth at 10^-7 M by sulforhodamine B assay; conditions: read-out: Activity
UO-31 [16] = test: Growth inhibition of human UO31 cells assessed as cell growth at 10^-8 M by sulforhodamine B assay; conditions: read-out: Activity
ACHN [17] = test: Growth inhibition of human ACHN cells assessed as cell growth at 10^-8 M by sulforhodamine B assay; conditions: read-out: Activity
[18] = read-out: LC50 (the source's name)
[19] = read-out: pLC50 (the source's name) (converted)

SMILES: CC(C)=CC(=O)O[C@@H]1CC(C)(C)C[C@H]2C3=CC[C@@H]4[C@@]5(C)CCC(=O)C(C)(C)[C@@H]5CC[C@@]4(C)[C@]3(C)CC[C@@]12C(=O)O
- GI50 (SF-268; read-out: GI50): 5.27 µM
- LC50 (SF-268; read-out: LC50): > 100 µM
- TGI (SF-268; read-out: TGI): 29.4 µM
- GI50 (SF-268; read-out: pGI50 (converted)): 5.25 µM
- LC50 (SF-268; read-out: pLC50 (converted)): > 100 µM
- TGI (SF-268; read-out: pTGI (converted)): 29.5 µM
- GI50 (HCT-116; read-out: GI50): 2.35 µM
- LC50 (HCT-116; read-out: LC50): > 100 µM
- TGI (HCT-116; read-out: TGI): 53.5 µM
- GI50 (HCT-116; read-out: pGI50 (converted)): 2.34 µM
- LC50 (HCT-116; read-out: pLC50 (converted)): > 100 µM
- TGI (HCT-116; read-out: pTGI (converted)): 53.7 µM
- GI50 ([1]; HCC 2998, read-out: GI50): 3.05 µM
- CC50 ([1]; HCC 2998, read-out: LC50 (the source's name)): 58.6 µM
- TGI ([1]; HCC 2998, read-out: TGI): 13.4 µM
- GI50 ([1]; HCC 2998, read-out: pGI50 (converted)): 3.02 µM
- CC50 ([1]; HCC 2998, read-out: pLC50 (the source's name) (converted)): 58.9 µM
- TGI ([1]; HCC 2998, read-out: pTGI (converted)): 13.5 µM
- GI50 (HOP-62 [2]; read-out: GI50): 9.26 µM
- LC50 (concentration killing 50% of cells) (HOP-62 [2]; read-out: LC50): > 100 µM
- TGI (HOP-62 [2]; read-out: TGI): 49.8 µM
- GI50 (HOP-62 [2]; read-out: pGI50 (converted)): 9.33 µM
- LC50 (concentration killing 50% of cells) (HOP-62 [2]; read-out: pLC50 (converted)): > 100 µM
- TGI (HOP-62 [2]; read-out: pTGI (converted)): 50.1 µM
- growth at 0.01 µM (IGROV-1 [3]): 103%
- growth at 0.01 µM (SK-MEL-5 [4]): 99%
- growth at 0.01 µM (NCI-H522): 102%
- growth at 0.01 µM (NCI-H23): 94%
- growth at 0.01 µM (HL-60(TB)): 106%
- GI50 (UO-31 [5]; read-out: GI50): 2.95 µM
- CC50 (UO-31 [5]; [18]): > 100 µM
- TGI (UO-31 [5]; read-out: TGI): 32.2 µM
- GI50 (UO-31 [5]; read-out: pGI50 (converted)): 2.95 µM
- CC50 (UO-31 [5]; [19]): > 100 µM
- TGI (UO-31 [5]; read-out: pTGI (converted)): 32.4 µM
- GI50 (OVCAR-3; read-out: GI50): 4.08 µM
- CC50 (OVCAR-3; [18]): 59.1 µM
- TGI (OVCAR-3; read-out: TGI): 19 µM
- GI50 (OVCAR-3; read-out: pGI50 (converted)): 4.07 µM
- CC50 (OVCAR-3; [19]): 58.9 µM
- TGI (OVCAR-3; read-out: pTGI (converted)): 19.1 µM
- GI50 (UACC-62 [6]; read-out: GI50): 2.47 µM
- CC50 (UACC-62 [6]; [18]): 48.5 µM
- TGI (UACC-62 [6]; read-out: TGI): 14.2 µM
- GI50 (UACC-62 [6]; read-out: pGI50 (converted)): 2.45 µM
- CC50 (UACC-62 [6]; [19]): 49 µM
- TGI (UACC-62 [6]; read-out: pTGI (converted)): 14.1 µM
- GI50 (IGROV-1 [7]; read-out: GI50): 5.36 µM
- CC50 (IGROV-1 [7]; [18]): > 100 µM
- TGI (IGROV-1 [7]; read-out: TGI): 38.4 µM
- GI50 (IGROV-1 [7]; read-out: pGI50 (converted)): 5.37 µM
- CC50 (IGROV-1 [7]; [19]): > 100 µM
- TGI (IGROV-1 [7]; read-out: pTGI (converted)): 38 µM
- GI50 (LOX IMVI; read-out: GI50): 6.32 µM
- CC50 (LOX IMVI; [18]): > 100 µM
- TGI (LOX IMVI; read-out: TGI): 29.3 µM
- GI50 (LOX IMVI; read-out: pGI50 (converted)): 6.31 µM
- CC50 (LOX IMVI; [19]): > 100 µM
- TGI (LOX IMVI; read-out: pTGI (converted)): 29.5 µM
- GI50 (SF-539; read-out: GI50): 4.75 µM
- CC50 (SF-539; [18]): > 100 µM
- TGI (SF-539; read-out: TGI): 24.2 µM
- GI50 (SF-539; read-out: pGI50 (converted)): 4.79 µM
- CC50 (SF-539; [19]): > 100 µM
- TGI (SF-539; read-out: pTGI (converted)): 24 µM
- GI50 (SF-295; read-out: GI50): 1.7 µM
- CC50 (SF-295; [18]): 72.7 µM
- TGI (SF-295; read-out: TGI): 11.9 µM
- GI50 (SF-295; read-out: pGI50 (converted)): 1.7 µM
- CC50 (SF-295; [19]): 72.4 µM
- TGI (SF-295; read-out: pTGI (converted)): 12 µM
- growth at 100 µM (MDA-MB-231): -64%
- growth at 100 µM (PC-3): -1%
- growth at 100 µM (RXF 393): -67%
- growth at 100 µM (ACHN [8]): -31%
- growth at 100 µM (IGROV-1 [9]): -23%
- growth at 100 µM (SK-MEL-2): -69%
- growth at 100 µM (SNB-19): 7%
- growth at 1 µM (CAKI-1 [10]): 87%
- growth at 1 µM (UACC-62 [11]): 73%
- growth at 1 µM (SK-MEL-5 [12]): 60%
- growth at 1 µM (M14): 87%
- growth at 1 µM (SNB-75): 87%
- growth at 1 µM (COLO 205): 103%
- growth at 1 µM (NCI-H226): 81%
- growth at 1 µM (HOP-62 [13]): 100%
- growth at 0.1 µM [14]: 93%
- growth at 0.1 µM (SN12C): 96%
- growth at 0.1 µM (CAKI-1 [15]): 93%
- growth at 0.1 µM (A549): 88%
- growth at 0.01 µM (UO-31 [16]): 88%
- growth at 0.01 µM (ACHN [17]): 97%
